Results: patent US11331310B2, “Method of treating cocaine addiction” (MyMD Pharmaceuticals (Florida), Inc., priority 2015, dated 2022)
Entries after “also recorded” stand apart in the source; their conditions may differ.

Key:
MAO-A [1] = molecular target: T1, MAO-A (Homo sapiens, UniProt P21397); details: cited from earlier work
T1 construct: purchased
T1 sequence (P21397 1-527): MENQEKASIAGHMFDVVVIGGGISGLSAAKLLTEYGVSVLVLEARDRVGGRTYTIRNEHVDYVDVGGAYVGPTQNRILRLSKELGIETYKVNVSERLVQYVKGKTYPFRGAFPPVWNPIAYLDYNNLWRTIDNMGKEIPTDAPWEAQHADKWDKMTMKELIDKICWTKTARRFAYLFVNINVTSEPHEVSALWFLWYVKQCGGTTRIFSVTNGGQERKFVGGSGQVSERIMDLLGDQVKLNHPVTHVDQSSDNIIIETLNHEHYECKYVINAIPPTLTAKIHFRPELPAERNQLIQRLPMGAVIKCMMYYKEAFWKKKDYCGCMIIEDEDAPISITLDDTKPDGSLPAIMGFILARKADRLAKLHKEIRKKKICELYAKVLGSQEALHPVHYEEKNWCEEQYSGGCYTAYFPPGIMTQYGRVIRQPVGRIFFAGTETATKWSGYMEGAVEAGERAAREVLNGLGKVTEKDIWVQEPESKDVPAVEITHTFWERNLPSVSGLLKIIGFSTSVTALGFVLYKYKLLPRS

MAO-B [2] = molecular target: T2, MAO-B (Homo sapiens, UniProt P27338); details: cited from earlier work
T2 sequence (P27338 1-520): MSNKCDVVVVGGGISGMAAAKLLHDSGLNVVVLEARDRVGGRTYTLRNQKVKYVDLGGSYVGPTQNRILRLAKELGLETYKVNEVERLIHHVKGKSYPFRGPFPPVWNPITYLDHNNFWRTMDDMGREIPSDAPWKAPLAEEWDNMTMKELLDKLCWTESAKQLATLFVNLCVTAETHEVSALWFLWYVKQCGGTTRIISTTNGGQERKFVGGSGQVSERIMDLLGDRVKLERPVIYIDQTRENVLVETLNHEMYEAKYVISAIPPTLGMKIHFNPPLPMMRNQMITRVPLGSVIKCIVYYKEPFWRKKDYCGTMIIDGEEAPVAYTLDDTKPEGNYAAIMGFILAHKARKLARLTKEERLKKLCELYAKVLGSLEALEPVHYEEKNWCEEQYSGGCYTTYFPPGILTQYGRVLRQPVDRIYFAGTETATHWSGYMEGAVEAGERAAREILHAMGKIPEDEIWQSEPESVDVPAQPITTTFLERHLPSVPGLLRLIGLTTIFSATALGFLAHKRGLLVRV

MPTP-induced toxicity = details: mice, cited from earlier work; for dopamine levels: MPTP
MAO-B [3] = molecular target: T2, MAO-B; assay: MAO-Glo luminescent assay, MAO-B inhibition; format: biochemical; details: 1 hour at room temperature, compared among five alkaloids
Description: (§1) This example describes experiments for determining monoamine oxidase (MAO) inhibition for isomyosmine and other alkaloids. MAOs are enzymes located on the outer membrane of mitochondria and are involved in the catabolism of monoamine neurotransmitters. There are two well-characterized isoenzymes: MAO-A, which predominantly catabolizes serotonin and norepinephrine, and MAO-B, which preferentially catabolizes benzylamine and phenylethylamine. Dopamine and tyramine are metabolized by both isoforms.
(§2) To detect the activity of MAO, a luminescent method (MAO-Glo Assay kit, from Promega, Cat #V1401) was used. In this method, a MAO substrate (a derivative of beetle luciferin provided in the kit) is mixed with the compound to be tested (in this case, myosmine and control compounds). Then, the MAO enzymes (either A or B, purchased separately) are added to the mixture and incubated with the reaction for 1 hour at room temperature. The MAO enzymes, if not inhibited by the test compound, will convert the substrate into methyl ester luciferin. Finally, a luciferin detection reagent (provided by the kit) is added (20 minutes at room temperature) to stop the MAO reaction and convert methyl ester luciferin into D-luciferin. […] The luminescent signal is measured and recorded using a luminometer. […]

MAO-A [4] = molecular target: T1, MAO-A; assay: MAO-Glo luminescent assay, MAO-A inhibition; format: biochemical
Description: as §1, §2

[5] = Oxygen saturation in individuals after oral administration; format: in vivo; details: fourteen individuals, one hour after oral administration, 100-300 mg depending on body weight
Description: Increasing oxygen saturation levels is believed to make isomyosmine particularly effective for treating substance addictions, including tobacco/nicotine addictions, as well as addictions to heroin, cocaine, opioids, methadone, d-methamphetamine, barbiturates, alcohol, benzodiazepines, amphetamines, or buprenorphine. For example, substances such as cocaine are known to cause blood vessels to constrict, resulting in increased heartrate and blood pressure and increased stress on the heart's ability to circulate blood and oxygen through the body. Increasing oxygen saturation levels may, among other things, counteract these types of effects associated with substance abuse by increasing blood oxygen levels, aiding in the treatment of the underlying addiction.

C1=CCC(c2cccnc2)NC1 (stereo not drawn) [anatabine]
MAO inhibitory effects against MAO-A (MAO-A [1]): exhibited MAO inhibitory effects
MAO inhibitory effects against MAO-B (MAO-B [2]): exhibited MAO inhibitory effects

c1ccc(-c2ccncc2)cc1 [4-phenylpyridine]
dopamine levels (MPTP-induced toxicity): no significant effect
decrease in dopamine metabolite levels induced by MPTP (MPTP-induced toxicity): prevented the decrease

c1cncc([C@@H]2CCCCN2)c1 [anabasine]
MAO inhibitory effects against MAO-A (MAO-A [1]): exhibited MAO inhibitory effects
MAO inhibitory effects against MAO-B (MAO-B [2]): exhibited MAO inhibitory effects

c1cncc([C@@H]2CCCN2)c1 [nornicotine]
MAO inhibitory effects against MAO-A (MAO-A [1]): exhibited MAO inhibitory effects
MAO inhibitory effects against MAO-B (MAO-B [2]): exhibited MAO inhibitory effects

C1=NC(c2cccnc2)CC1 (stereo not drawn) [isomyosmine, 3-(3,4-dihydro-2H-pyrrol-2-yl)-pyridine]
inhibition of the activity of MAO-B (in words, FIG. 2) (MAO-B [3]): potent inhibitor
inhibition of the activity of MAO-B (in words, FIG. 2) (MAO-B [3]; listed as Isomyosmine): most potent among the five alkaloids tested
inhibition at 2000 µM (MAO-A [4]; 2 mM concentration (2,000 micromolar)): ~50%
inhibition of the enzymatic activity of MAO-A (in words, curve position in FIG. 1) (MAO-A [4]; 1 hour at room temperature, compared among five alkaloids): most potent of the five; also recorded: potent inhibitor
oxygen saturation (%) [5]: dramatically increase

CN1CCCC1c1cccnc1 (stereo not drawn) [nicotine]
dopamine levels (MPTP-induced toxicity): no significant effect
decrease in dopamine metabolite levels induced by MPTP (MPTP-induced toxicity): prevented the decrease
